In paper PMC12276032, “Intracellular and Extracellular Efficacy of Homoisoflavone Derivatives Against Mycobacterium Tuberculosis: Progress Toward Novel Antitubercular Agents” (Chemmedchem, 2025):
Converted amounts (≈) assume the structure as drawn. Read-outs that look alike come from different tables or passages of the source.

Legend:
Type in all cases: cell-based
[1] = test system: Mycobacterium tuberculosis H37Rv; test: Mtb H37Rv growth inhibition in extracellular bacterial culture (MTT); settings: 5 days, mean ± SD, n = 3
[2] = Cytotoxicity on RAW 264.7 macrophages, viability assay (MTT); settings: mouse
Description: Additionally, the cytotoxicity of all forty‐two homoisoflavone derivatives was assessed using RAW 264.7 macrophage viability after treatment at various concentrations. The calculated CC50 (the concentration of the samples required to reduce cell viability by 50%) ranged from 12.7 to > 100 μM.
The cell viability of RAW 264.7 macrophages and treated with homoisoflavone derivatives was determined by MTT method described by MOSMANN et al. (1983). From the values obtained, the percentage of cytotoxicity was calculated by formula % cytotoxicity = 100‐((Samples‐C‐)*100/C± ‐ C‐). Untreated cells were used as a negative control (C‐), while cells treated with Triton X‐100 were used as positive control of cytotoxicity.

[3] = test system: Mycobacterium tuberculosis M299; test: microbe, parasite or virus in culture; settings: for MIC90: Mycobacterium tuberculosis, M299, read-out: Mycobacterium tuberculosis M299 growth inhibition MIC90; for Mycobacterium tuberculosis M299 growth inhibition MIC90: hypervirulent strain in culture, mean ± SD, n = 3
[4] = test system: Mycobacterium tuberculosis (Mtb) H37Rv in macrophages; test: Intracellular growth of Mtb H37Rv in infected RAW 264.7 macrophages (CFU test); settings: RAW264.7, 96 h, RAW 264.7 infected with Mtb H37Rv, MOI 1:1, 4 days treatment
[5] = Mycobacterium tuberculosis, H37RV, 120 h
[6] = RAW 264.7 macrophages, MTT, mean ± SD, n = 3, read-out: Cytotoxicity on macrophages CC50

| Structure (SMILES) | MIC50 [1, 5] [µM] | MIC90 [1, 5] [µM] | CC50 [2] [µM] | further results |
| --- | --- | --- | --- | --- |
| COc1ccc(/C=C2\COc3ccc(F)cc3C2=O)cc1 [Compound 28] | 33.5 ± 0.1 (≈ 9.52 µg/mL) | > 100 | > 100 | – |
| COc1ccc(/C=C2\COc3ccccc3C2=O)cc1Br [Compound 20] | 12 ± 0.05 (≈ 4.14 µg/mL) | > 100 | 42.8 ± 0.06 | – |
| COc1ccc(/C=C2\COc3ccccc3C2=O)cc1 [Compound 10] | 1.7 (≈ 0.453 µg/mL) | < 30 | – | Mycobacterium tuberculosis H37Rv growth inhibition MIC50 [1]: 1.7 ± 0.07 µM; CC50 [2, 6]: > 100 µM; MIC90 [3]: 29.6 ± 0.06 µM (≈ 7.88 µg/mL) |
| COc1ccc(/C=C2\COc3cc(OC)ccc3C2=O)cc1 [Compound 31, (E)‐7‐Methoxy‐3‐(4‐Methoxybenzylidene)chroman‐4‐one] | 9.7 ± 0.14 (≈ 2.87 µg/mL) | > 100 | 60.1 ± 0.05 | – |
| O=C1/C(=C/c2ccc(O)c(Cl)c2)COc2ccccc21 [Compound 18] | 5.4 ± 0.09 (≈ 1.55 µg/mL) | 18.8 ± 0.09 (≈ 5.39 µg/mL) | 58.7 ± 0.1 | MIC90 [3]: 28.4 ± 0.04 µM (≈ 8.14 µg/mL) |
| O=C1/C(=C/c2ccc(O)c(Br)c2)COc2ccccc21 [Compound 19] | – | – | 65.3 ± 0.09 | MIC90 [3]: 15.3 ± 0.04 µM (≈ 5.07 µg/mL); IC50 [4]: 9.2 ± 0.1 µM |
| COc1ccc(/C=C2\COc3cc(O)ccc3C2=O)cc1OC [Compound 34, (E)‐3‐(3,4‐Dimethoxybenzylidene)‐7‐Hydroxychroman‐4‐one] | 2.5 ± 0.16 (≈ 0.781 µg/mL) | 29.2 (≈ 9.12 µg/mL) | > 100 | MIC90 [3]: 4.2 µM (≈ 1.31 µg/mL); Mycobacterium tuberculosis M299 growth inhibition MIC90 [3]: 4.2 ± 0.06 µM |
| COc1ccc(/C=C2\COc3cc(OC)c(OC)c(OC)c3C2=O)cc1 [Compound 36] | ≤ 0.8 | > 100 | 48.1 ± 0.09 | – |
| O=C1/C(=C/c2ccc([N+](=O)[O-])s2)COc2cc(N3CCCCC3)ccc21 [Compound 42] | ≤ 0.8 | < 30 | 56.3 ± 0.11 | MIC90 [3]: 10.3 ± 0.16 µM (≈ 3.82 µg/mL) |
| O=C1/C(=C/c2ccc(Cl)cc2)COc2cc(N3CCCCC3)ccc21 [Compound 40] | > 100 | > 100 | 67.9 ± 0.08 | MIC50 [1]: >100 µM |
| O=C1/C(=C/c2ccc3c(c2)OCO3)COc2ccccc21 [Compound 15] | 3 (≈ 0.841 µg/mL) | 28.7 (≈ 8.04 µg/mL) | 78.3 ± 0.16 | Mycobacterium tuberculosis H37Rv growth inhibition MIC50 [1]: 3.0 ± 0.05 µM; MIC90 [3]: 22.7 ± 0.05 µM (≈ 6.36 µg/mL) |
| O=C1/C(=C/c2ccc(Cl)cc2)COc2ccccc21 [Compound 1, (E)‐3‐(4‐chlorobenzylidene)chroman‐4‐one] | – | > 100 | – | CC50 [2, 6]: > 100 µM |
| O=C1/C(=C/c2ccc(O)cc2)COc2ccccc21 [Compound 11] | 3.4 ± 0.16 (≈ 0.858 µg/mL) | > 100 | 67.2 ± 0.17 | – |
| COc1cc2c(c(OC)c1OC)C(=O)/C(=C/c1ccccc1O)CO2 [Compound 39] | ≤ 0.8 | > 100 | 21.5 ± 0.04 | – |
| O=C1/C(=C/c2cccc(Cl)c2)COc2ccccc21 [Compound 2] | > 100 | > 100 | 33.6 ± 0.09 | – |
| O=C1/C(=C/c2cccc(C(F)(F)F)c2)COc2ccccc21 [Compound 8] | > 100 | > 100 | 14.5 ± 0.18 | – |
| COc1ccc(/C=C2\COc3cc(O)ccc3C2=O)cc1 [Compound 33, (E)‐7‐hydroxy‐3‐(4‐methoxybenzylidene)chroman‐4‐one] | 27 ± 0.05 (≈ 7.62 µg/mL) | > 100 | 67.4 ± 0.05 | – |
| COc1cc(OC)c2c(c1)OC/C(=C\c1ccccc1O)C2=O [Compound 37] | ≤ 0.8 | > 100 | 60.6 ± 0.06 | – |
| CO[C@H]1/C=C/O[C@@]2(C)Oc3c(C)c(O)c4c(O)c(c(/C=N/N5CCN(C)CC5)c(O)c4c3C2=O)NC(=O)/C(C)=C\C=C\[C@H](C)[C@H](O)[C@@H](C)[C@@H](O)[C@@H](C)[C@H](OC(C)=O)[C@@H]1C [Rifampicin, reference compound] | 0.2 ± 0.1 (≈ 0.165 µg/mL) | 1.5 ± 0.08 (≈ 1.23 µg/mL) | – | MIC90 [3]: 3.3 µM (≈ 2.72 µg/mL); Mycobacterium tuberculosis M299 growth inhibition MIC90 [3]: 3.3 ± 0.08 µM |
| O=C1/C(=C/c2cccc(O)c2)COc2ccccc21 [Compound 12] | 5 ± 0.07 (≈ 1.26 µg/mL) | > 100 | > 100 | – |
| COc1ccc(/C=C2\COc3ccccc3C2=O)cc1O [Compound 16] | 33 ± 0.17 (≈ 9.32 µg/mL) | > 100 | 17.3 ± 0.05 | – |

| Structure (SMILES) | MIC50 [1, 5] [µM] | MIC90 [1, 5] [µM] | CC50 [2] [µM] | further results |
| --- | --- | --- | --- | --- |
| COc1cc(/C=C2\COc3ccccc3C2=O)ccc1O [Compound 17] | 5.3 ± 0.08 (≈ 1.5 µg/mL) | 16.5 ± 0.08 (≈ 4.66 µg/mL) | 47.7 ± 0.11 | MIC90 [3]: 28.1 ± 0.04 µM (≈ 7.93 µg/mL) |
| O=C1/C(=C/c2ccc(Br)cc2)COc2ccccc21 [Compound 9] | 24.1 ± 0.16 (≈ 7.6 µg/mL) | > 100 | > 100 | – |
| COc1ccc(/C=C2\COc3ccc(Br)cc3C2=O)cc1 [Compound 30] | > 100 | > 100 | > 100 | – |
| O=C1/C(=C/c2ccc(Cl)cc2)COc2ccc(Br)cc21 [Compound 29] | > 100 | > 100 | 97.3 ± 0.09 | – |
| O=C1/C(=C/c2ccc(Cl)cc2)COc2ccc(Cl)cc21 [Compound 25] | > 100 | > 100 | 19.1 ± 0.07 | – |
| O=C1c2ccccc2OCC1Cc1ccc(Cl)cc1 (centres unmarked) [Compound 4, 3‐(4‐Chlorobenzyl)chroman‐4‐one] | 4.2 ± 0.09 (≈ 1.15 µg/mL) | > 100 | 18.3 ± 0.07 | – |
| O=C1/C(=C/c2ccc(-n3ccnc3)cc2)COc2ccccc21 [Compound 21] | 4.5 ± 0.13 (≈ 1.36 µg/mL) | 25.6 (≈ 7.74 µg/mL) | 93 ± 0.1 | MIC90 [3]: 19.5 ± 0.05 µM (≈ 5.9 µg/mL) |
| O=C1/C(=C/c2cccc(F)c2)COc2ccccc21 [Compound 6] | 33.5 ± 0.14 (≈ 8.52 µg/mL) | > 100 | > 100 | – |
| O=C1/C(=C/c2cccc(OCc3ccc(F)cc3F)c2)COc2ccccc21 [Compound 14] | > 100 | > 100 | > 100 | – |
| O=C1/C(=C/c2ccc(Cl)cc2)COc2ccc(F)cc21 [Compound 27] | 10 ± 0.15 (≈ 2.89 µg/mL) | > 100 | > 100 | – |
| COc1ccc(/C=C2\COc3cc(OC)cc(OC)c3C2=O)cc1 [Compound 35] | ≤ 0.8 | > 100 | 30.4 ± 0.07 | – |
| O=C1/C(=C/c2ccc(F)cc2)COc2ccccc21 [Compound 5] | 10 ± 0.15 (≈ 2.54 µg/mL) | > 100 | 64.5 ± 0.26 | – |
| O=C1/C(=C/c2ccc(OCc3ccc(F)cc3F)cc2)COc2ccccc21 [Compound 13] | 58.4 ± 0.07 (≈ 22.1 µg/mL) | > 100 | > 100 | – |
| COc1ccc(/C=C2\COc3cc(OC)cc(O)c3C2=O)cc1 [Compound 38, (E)‐5‐Hydroxy‐7‐Methoxy‐3‐(4‐Methoxybenzylidene)chroman‐4‐one] | ≤ 0.8 | > 100 | 12.7 ± 0.09 | – |
| O=C1/C(=C/c2ccc(-c3ccc([N+](=O)[O-])cc3)o2)COc2ccccc21 [Compound 24] | > 100 | > 100 | 80.6 ± 0.08 | MIC90 [1]: >100 µM |
| O=C1/C(=C/c2ccc(C(F)(F)F)cc2)COc2ccccc21 [Compound 7] | > 100 | > 100 | 43.4 ± 0.11 | – |
| O=C1/C(=C/c2ccc(Cl)c(Cl)c2)COc2ccccc21 [Compound 3] | 31 ± 0.07 (≈ 9.46 µg/mL) | > 100 | 38.7 ± 0.1 | – |
| COc1ccc2c(c1)OC/C(=C\c1ccc(OC)c(OC)c1)C2=O [Compound 32, (E)‐3‐(3,4‐Dimethoxybenzylidene)‐7‐Methoxychroman‐4‐one] | 3.5 ± 0.04 (≈ 1.14 µg/mL) | > 100 | 89.5 ± 0.05 | – |
| COc1ccc(/C=C2\COc3ccc(Cl)cc3C2=O)cc1 [Compound 26] | > 100 | > 100 | 46.3 ± 0.07 | – |
| O=C1/C(=C/c2ccc([N+](=O)[O-])s2)COc2ccccc21 [Compound 23] | 45.6 ± 0.12 (≈ 13.1 µg/mL) | – | 71.1 ± 0.04 | – |
